Source: publication PMC7498324, “Structure and mechanism of CutA, RNA nucleotidyl transferase with an unusual preference for cytosine” (Nucleic Acids Research, 2020)

System: T1, CutA (TtCutA)
T1 construct: TtCutA^240-603
Assay: fluorescence anisotropy competition with ATP-Cy5
Format: binding, Thermothielavioides terrestris

Row | SMILES | IC50 [nM]
1 | O=c1ccn([C@@H]2O[C@H](CO[P@@](=O)(O)O[P@@](=O)(O)OP(=O)(O)O)[C@@H](O)[C@H]2O)c(=O)[nH]1 [UTP] | 537 ± 23
2 | Nc1ccn([C@@H]2O[C@H](COP(=O)(O)OP(=O)(O)OP(=O)(O)O)[C@@H](O)[C@H]2O)c(=O)n1 [CTP] | 467 ± 16
3 | Nc1nc2c(ncn2[C@@H]2O[C@H](COP(=O)(O)OP(=O)(O)OP(=O)(O)O)[C@@H](O)[C@H]2O)c(=O)[nH]1 [GTP] | 1050 ± 56
4 | Nc1ncnc2c1ncn2[C@@H]1O[C@H](COP(=O)(O)OP(=O)(O)OP(=O)(O)O)[C@@H](O)[C@H]1O [ATP] | 562 ± 21
